According to US10077241B2 (Janssen Pharmaceutica NV, priority 2014, dated 2018):
Structures can show the parent of a compound that is named as a salt.

Experiments:
[1] = target: T1, TGR5 (NCI-H716 cell line) (Homo sapiens, UniProt Q8TDU6); assay: NCI-H716 cAMP Agonist EC50 Determination
T1 sequence (Q8TDU6 1-330): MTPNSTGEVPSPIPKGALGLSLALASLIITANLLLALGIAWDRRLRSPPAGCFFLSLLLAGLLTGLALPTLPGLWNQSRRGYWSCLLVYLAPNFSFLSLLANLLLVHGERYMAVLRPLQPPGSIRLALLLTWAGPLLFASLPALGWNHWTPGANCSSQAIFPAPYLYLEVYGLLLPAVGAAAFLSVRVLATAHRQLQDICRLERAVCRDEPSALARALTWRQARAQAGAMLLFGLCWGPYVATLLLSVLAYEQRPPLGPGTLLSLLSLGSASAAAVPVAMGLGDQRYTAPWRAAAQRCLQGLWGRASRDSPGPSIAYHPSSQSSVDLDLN

TGR5 (STC1 cell line) = target: T2, TGR5 (STC1 cell line) (Mus musculus, UniProt Q80SS6); assay: STC1 cAMP Agonist EC50 Determination
T2 sequence (Q80SS6 1-329): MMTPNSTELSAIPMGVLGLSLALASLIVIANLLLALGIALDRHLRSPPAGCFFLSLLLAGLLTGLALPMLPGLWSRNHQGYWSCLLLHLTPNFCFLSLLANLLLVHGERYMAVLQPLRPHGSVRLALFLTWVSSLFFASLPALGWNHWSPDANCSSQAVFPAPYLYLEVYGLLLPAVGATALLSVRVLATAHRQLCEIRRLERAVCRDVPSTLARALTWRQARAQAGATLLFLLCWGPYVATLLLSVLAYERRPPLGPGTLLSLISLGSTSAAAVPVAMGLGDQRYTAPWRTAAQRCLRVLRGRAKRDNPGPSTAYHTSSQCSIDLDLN
Procedure: Cell stocks were maintained and grown in a sub-confluent state using standard cell culture procedures. The day before the experiment, the cells were harvested with non-enzymatic cell dissociation buffer and resuspended in complete growth media at 4E5 c/ml. […] The seeded plates were incubated overnight at 37° C.
On the day of the experiment, Assay Buffer containing: HBSS with Ca^2+and Mg^2+; 5 μM HEPES; 0.1% BSA; and, 0.5 μM IBMX was prepared. The growth medium was washed from the cell plates and replaced with 20 μL of Assay Buffer. […] The reaction was stopped by the addition of 20 μL 0.1% Formic Acid to all wells. Sixty minutes later 30 μL 3 M deuterated AMP was added to all wells (as a control for volume addition to the mass spec). Plates were mixed on a plate shaker for 1 min and centrifugated (5 min 3000 RPMs no brakes).
Plates were run on a 4000 QTrap triple-quadrapole Mass spectrometer in positive ion mode coupled with a Biocius RapidFire 300is. […] Two ions (cAMP and deuterated AMP were measured using Multiple Reaction Monitoring (MRM) in positive ion mode and the area under the curve (AUC) was determined for each of the ions.
The data from the Mass Spec/Rapid Plate AUC for cAMP and deuterated AMP were imported to an Excel worksheet. A Normalized signal (NS) was generated for each well=(cAMP AUC for the well/deut AMP AUC for the well)*average deut AMP AUC for the plate). nM cAMP was calculated for each well from the cAMP standard curves located on each plate by first calculating the slope and deriving the intercept (b).
EC50 values were determined from a 4-point fit (Hill equation) of a single 11-point compound dosing.

| EC50 [1] | EC50 (TGR5 (STC1 cell line)) | Structure (SMILES) |
| --- | --- | --- |
| > 50000 nM | 800 nM | COCCNC(=O)c1cc(F)c(CSc2nc3c(n2-c2ccc(F)cc2)C(C)(c2ccc(F)c(OC)c2)CCC3)c(F)c1 (stereo not shown) [Example 124, 3,5-difluoro-4-(((7-(4-fluoro-3-methoxyphenyl)-1-(4-fluorophenyl)-7-methyl-4,5,6,7-tetrahydro-1H-benzo[d]imidazol-2-yl)thio)methyl)-N-(2-methoxyethyl)benzamide] |
| > 50000 nM | 4780 nM | COc1cc(C2(C)CCCc3nc(SCc4ccncc4)n(-c4ccc(F)cc4)c32)ccc1Cl (stereo not shown) [Example 88] |
| 17200 nM | 130 nM | COc1cc(C2(C)CCCc3nc(SCc4c(F)cc(C(=O)N[C@@H](CCCNC(=N)N)C(=O)O)cc4F)n(-c4ccc(F)cc4)c32)ccc1Cl (stereo partly drawn) [Example 83, (S)-2-(4-((7-(4-chloro-3-methoxyphenyl)-1-(4-fluorophenyl)-4,5,6,7-tetrahydro-7-methyl-1H-benzo[d]imidazol-2-ylthio)methyl)-3,5-difluorobenzamido)-5-guanidinopentanoic acid trifluoroacetic acid] |
| 2600 nM | 220 nM | COc1ccc(C2(C)CCCc3nc(SCc4c(F)cccc4[N+](=O)[O-])n(-c4ccc(F)cc4)c32)cc1OC (stereo not shown) [Example 115, 7-(3,4-dimethoxyphenyl)-2-((2-fluoro-6-nitrobenzyl)thio)-1-(4-fluorophenyl)-7-methyl-4,5,6,7-tetrahydro-1H-benzo[d]imidazole] |
| > 50000 nM | 880 nM | C=C1COC(c2ccc(Cl)c(OC)c2)c2c1nc(SCc1c(F)cccc1Cl)n2-c1ccc(F)cc1 (stereo not shown) [Example 137, 4-(4-chloro-3-methoxyphenyl)-2-((2-chloro-6-fluorobenzyl)thio)-3-(4-fluorophenyl)-7-methylene-3,4,6,7-tetrahydropyrano[3,4-d]imidazole] |
| 2650 nM | 410 nM | COc1ccc(C2(C)CCCc3nc(SCc4nccs4)n(-c4ccc(F)cc4)c32)cc1OC (stereo not shown) [Example 117, 2-(((7-(3,4-dimethoxyphenyl)-1-(4-fluorophenyl)-7-methyl-4,5,6,7-tetrahydro-1H-benzo[d]imidazol-2-yl)thio)methyl)thiazole] |
| 33100 nM | 2390 nM | COc1ccc(C2(C)CCCc3nc(SCc4ccccc4)n(-c4ccc(F)cc4)c32)cc1OC (stereo not shown) [Example 99, 2-(benzylthio)-7-(3,4-dimethoxyphenyl)-1-(4-fluorophenyl)-7-methyl-4,5,6,7-tetrahydro-1H-benzo[d]imidazole] |
| > 50000 nM | 8120 nM | COc1cc(C2CCCc3nc(SCc4c(F)cc(S(=O)(=O)NS(C)(=O)=O)cc4F)n(-c4ccc(F)cc4)c32)ccc1Cl (stereo not shown) [Example 21b, 4-((7-(4-chloro-3-methoxyphenyl)-1-(4-fluorophenyl)-4,5,6,7-tetrahydro-1H-benzo[d]imidazol-2-ylthio)methyl)-3,5-difluoro-N-(methylsulfonyl)benzenesulfonamide] |
| > 50000 nM | 790 nM | COc1cc(C2CCCc3nc(SCc4c(F)cccc4Cl)n(-c4cc(F)c(F)c(F)c4)c32)ccc1Cl (stereo not shown) [Example 10, 7-(4-chloro-3-methoxyphenyl)-2-((2-chloro-6-fluorobenzyl)thio)-1-(3,4,5-trifluorophenyl)-4,5,6,7-tetrahydro-1H-benzo[d]imidazole] |
| 34700 nM | 280 nM | COc1cc(C2CCCc3nc(SCc4c(F)cncc4F)n(-c4ccc(F)cc4)c32)ccc1Cl (stereo not shown) [Example 50, 7-(4-chloro-3-methoxyphenyl)-2-((3,5-difluoropyridin-4-yl)methylthio)-1-(4-fluorophenyl)-4,5,6,7-tetrahydro-1H-benzo[d]imidazole trifluoroacetic acid] |
| > 50000 nM | 530 nM | COc1cc(C2CCCc3nc(SCc4c(F)cc(CCCNC(=N)N)cc4F)n(-c4ccc(F)cc4)c32)ccc1Cl (stereo not shown) [Example 42, 1-(3-(4-((7-(4-chloro-3-methoxyphenyl)-1-(4-fluorophenyl)-4,5,6,7-tetrahydro-1H-benzo[d]imidazol-2-ylthio)methyl)-3,5-difluorophenyl)propyl)guanidine trifluoroacetic acid] |

The next lines start with the compound.

| Structure (SMILES) | EC50 [1] | EC50 (TGR5 (STC1 cell line)) |
| --- | --- | --- |
| COc1cc(C2CCCc3nc(SCc4c(F)cncc4Br)n(-c4ccc(F)cc4)c32)ccc1Cl (stereo not shown) [Example 56, 2-((3-bromo-5-fluoropyridin-4-yl)methylthio)-7-(4-chloro-3-methoxyphenyl)-1-(4-fluorophenyl)-4,5,6,7-tetrahydro-1H-benzo[d]imidazole trifluoroacetic acid] | > 50000 nM | 130 nM |
| COc1cc(C2CCCc3nc(SCc4c(F)cc(CCc5nnn[nH]5)cc4F)n(-c4ccc(F)cc4)c32)ccc1Cl (stereo not shown) [Example 49, 2-(4-(2-(1H-tetrazol-5-yl)ethyl)-2,6-difluorobenzylthio)-7-(4-chloro-3-methoxyphenyl)-1-(4-fluorophenyl)-4,5,6,7-tetrahydro-1H-benzo[d]imidazole trifluoroacetic acid] | > 50000 nM | 940 nM |
| COc1cc(C2CCCc3nc(SCc4c(F)c[n+]([O-])cc4F)n(-c4ccc(F)cc4)c32)ccc1Cl (stereo not shown) [Example 59, 4-((7-(4-chloro-3-methoxyphenyl)-1-(4-fluorophenyl)-4,5,6,7-tetrahydro-1H-benzo[d]imidazol-2-ylthio)methyl)-3,5-difluoropyridine 1-oxide trifluoroacetic acid] | > 50000 nM | 2020 nM |
| C=C1COC(c2ccc(OC)c(OC)c2)c2c1nc(SCc1c(F)cccc1Cl)n2-c1ccc(F)cc1 (stereo not shown) [Example 136, 2-((2-chloro-6-fluorobenzyl)thio)-4-(3,4-dimethoxyphenyl)-3-(4-fluorophenyl)-7-methylene-3,4,6,7-tetrahydropyrano[3,4-d]imidazole] | > 50000 nM | 1530 nM |
| COc1cc(C2CCCc3nc(SCc4c(F)cc(S(=O)(=O)NCCC[N+](C)(C)C)cc4F)n(-c4ccc(F)cc4)c32)ccc1Cl (stereo not shown) [Example 22, 3-(4-((7-(4-chloro-3-methoxyphenyl)-1-(4-fluorophenyl)-4,5,6,7-tetrahydro-1H-benzo[d]imidazol-2-ylthio)methyl)-3,5-difluorophenylsulfonamido)-N,N,N-trimethylpropan-1-aminium 2,2,2-trifluoroacetate] | > 50000 nM | 32600 nM |
| COc1ccc(C2(C)CCCc3nc(SCc4c(F)cc(CCN5CCOCC5)cc4F)n(-c4ccc(F)cc4)c32)cc1OC (stereo not shown) [Example 112, 4-(4-(((7-(3,4-dimethoxyphenyl)-1-(4-fluorophenyl)-7-methyl-4,5,6,7-tetrahydro-1H-benzo[d]imidazol-2-yl)thio)methyl)-3,5-difluorophenethyl)morpholine] | 300 nM | 130 nM |
| COc1cc(C2CCCc3nc(SCc4c(F)cc(C#N)cc4F)n(-c4ccc(F)cc4)c32)ccc1F (stereo not shown) [Example 73, 3,5-difluoro-4-(((7-(4-fluoro-3-methoxyphenyl)-1-(4-fluorophenyl)-4,5,6,7-tetrahydro-1H-benzo[d]imidazol-2-yl)thio)methyl)benzonitrile] | 47500 nM | 1530 nM |
| COc1ccc(C2(C)CCCc3nc(SCc4c(F)cc(C(N)=O)cc4F)n(-c4ccc(F)cc4)c32)cc1OC (stereo not shown) [Example 104, 4-(((7-(3,4-dimethoxyphenyl)-1-(4-fluorophenyl)-7-methyl-4,5,6,7-tetrahydro-1H-benzo[d]imidazol-2-yl)thio)methyl)-3,5-difluorobenzamide] | 900 nM | 170 nM |
| COc1ccc(C2CCCc3nc(SCc4c(F)cc(C#N)cc4F)n(-c4ccc(F)cc4)c32)cc1OC (stereo not shown) [Example 64, 4-(((7-(3,4-dimethoxyphenyl)-1-(4-fluorophenyl)-4,5,6,7-tetrahydro-1H-benzo[d]imidazol-2-yl)thio)methyl)-3,5-difluorobenzonitrile] | 5340 nM | 150 nM |
| COc1cc(C2CCCc3nc(SCc4c(F)ccc(OCCN(C)C)c4F)n(-c4ccc(F)cc4)c32)ccc1Cl (stereo not shown) [Example 31, [2-[3-([[17-(4-chloro-3-methoxyphenyl)-1-(4-fluorophenyl)-4,5,6,7-tetrahydro-1H-1,3-benzodiazol-2-yl]sulfanyl]methyl)-2,4-difluorophenoxy]ethyl]dimethylamine] | 4440 nM | 4100 nM |
| COc1cc(C2CCCc3nc(SCc4c(F)cc(OCCOCCOCCN(C)C)cc4F)n(-c4ccc(F)cc4)c32)ccc1Cl (stereo not shown) [Example 33, 2-(2-(2-(4-((7-(4-chloro-3-methoxyphenyl)-1-(4-fluorophenyl)-4,5,6,7-tetrahydro-1H-benzo[d]imidazol-2-ylthio)methyl)-3,5-difluorophenoxy)ethoxy)ethoxy)-N,N-dimethylethanamine hydrochloride] | > 50000 nM | 4900 nM |
| COc1cc(C2CCCc3nc(SCc4c(F)cc(CC/C=N/NC(=N)N)cc4F)n(-c4ccc(F)cc4)c32)ccc1Cl (stereo not shown) [Example 47, (E)-2-(3-(4-((7-(4-chloro-3-methoxyphenyl)-1-(4-fluorophenyl)-4,5,6,7-tetrahydro-1H-benzo[d]imidazol-2-ylthio)methyl)-3,5-difluorophenyl)propylidene) hydrazinecarboximidamide hydrochloride] | 47300 nM | 370 nM |
